Measured values as given in the supplement of paper PMC4862054.

Each molecule was assayed on MDA-MB-468 (assay: normalised response (% of control), CellTiter-Glo; higher = more viable cells (100 = DMSO, 0 = benzethonium chloride kill control)). Conditions: incubation time: 72 h.
In short: (§1)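 Normalised signals at single concentrations make up the values. They come from breast cancer cell lines seeded (20 µl suspension) into 384-well plates with compound at 5 concentrations in 10-fold steps over a compound-specific 10,000-fold range, incubated 72 h, and read for CellTox Green fluorescence then CellTiter-Glo luminescence. Each plate was normalised to 0.1 % DMSO (100) and a positive kill control (0).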

Structure (SMILES)	normalised response [%]
C=CC(=O)N1CCC[C@@H](n2nc(-c3ccc(Oc4ccccc4)cc3)c3c(N)ncnc32)C1 [Ibrutinib] (1 nM)	105
CCCCC(=O)OCC(=O)[C@]1(O)Cc2c(O)c3c(c(O)c2[C@@H](O[C@H]2C[C@H](NC(=O)C(F)(F)F)[C@H](O)[C@H](C)O2)C1)C(=O)c1c(OC)cccc1C3=O [Valrubicin] (0.5 nM)	99.1
COc1cc2nccc(Oc3ccc(NC(=O)Nc4cc(C)on4)c(Cl)c3)c2cc1OC [Tivozanib] (10 nM)	93.5
CCN(CC)CCCC(C)Nc1c2ccc(Cl)cc2nc2ccc(OC)cc12 (stereo not given) [Mepacrine] (5 nM)	100
CCCS(=O)(=O)Nc1ccc(F)c(C(=O)c2c[nH]c3ncc(-c4ccc(Cl)cc4)cc23)c1F [Vemurafenib] (10 nM)	88.2
CCCS(=O)(=O)Nc1ccc(F)c(C(=O)c2c[nH]c3ncc(-c4ccc(Cl)cc4)cc23)c1F [Vemurafenib] (1 nM)	95
CC1=C(/C=C/C(C)=C/C=C/C(C)=C/C(=O)O)C(C)(C)CCC1 [Tretinoin] (10 nM)	97.7
Cc1ccc(-c2cc(C(F)(F)F)nn2-c2ccc(S(N)(=O)=O)cc2)cc1 [Celecoxib] (1 nM)	102
Oc1ncc(N(CCCl)CCCl)c(O)n1 [Uracil mustard] (1 nM)	107
Nc1ccccc1NC(=O)c1ccc(CNC(=O)OCc2cccnc2)cc1 [Entinostat] (1 nM)	106
C=CC(=O)Nc1cc2c(Nc3ccc(F)c(Cl)c3)ncnc2cc1OCCCN1CCOCC1 [Canertinib] (1 nM)	106

What follows are molecules tested on BT-474 in the same assay as above. Conditions: incubation time: 72 h.
In short: as §1

Structure (SMILES)	normalised response [%]
C=CC(=O)N1CCC[C@@H](n2nc(-c3ccc(Oc4ccccc4)cc3)c3c(N)ncnc32)C1 [Ibrutinib] (0.1 nM)	101
Nc1nc2[nH]cc(CCc3ccc(C(=O)N[C@@H](CCC(=O)O)C(=O)O)cc3)c2c(=O)[nH]1 [Pemetrexed] (1 nM)	97.8
COc1cc2nccc(Oc3ccc(NC(=O)Nc4cc(C)on4)c(Cl)c3)c2cc1OC [Tivozanib] (1 nM)	91.4
COc1cc2c(NC3CCN(C(C)C)CC3)nc(C3CCCCC3)nc2cc1OCCCN1CCCC1 [UNC0638] (1 nM)	91.1
CNC(=O)c1cc(Oc2ccc(NC(=O)Nc3cc(C(C)(C)C)nn3-c3ccc4ncccc4c3)c(F)c2)ccn1 [Rebastinib] (0.1 nM)	99.5
N#Cc1ccc(C(c2ccc(C#N)cc2)n2cncn2)cc1 [Letrozole] (1 nM)	99.8
CC[C@H](Nc1ncnc2[nH]cnc12)c1nc2cccc(F)c2c(=O)n1-c1ccccc1 [GS-1101] (1 nM)	92
O=C(O)C(=O)O.[NH-][C@@H]1CCCC[C@H]1[NH-].[Pt+2] [Oxaliplatin] (10 nM)	101
C=CC(=O)Nc1cc2c(Nc3ccc(F)c(Cl)c3)ncnc2cc1OCCCN1CCOCC1 [Canertinib] (10 nM)	106
CC(=O)Nc1cccc(-n2c(=O)n(C3CC3)c(=O)c3c(Nc4ccc(I)cc4F)n(C)c(=O)c(C)c32)c1 [Trametinib] (0.25 nM)	109
C=CC(=O)N1CCC[C@@H](n2nc(-c3ccc(Oc4ccccc4)cc3)c3c(N)ncnc32)C1 [Ibrutinib] (1 nM)	103
CCCCC(=O)OCC(=O)[C@]1(O)Cc2c(O)c3c(c(O)c2[C@@H](O[C@H]2C[C@H](NC(=O)C(F)(F)F)[C@H](O)[C@H](C)O2)C1)C(=O)c1c(OC)cccc1C3=O [Valrubicin] (0.5 nM)	104
COc1cc2nccc(Oc3ccc(NC(=O)Nc4cc(C)on4)c(Cl)c3)c2cc1OC [Tivozanib] (10 nM)	89.9
CCN(CC)CCCC(C)Nc1c2ccc(Cl)cc2nc2ccc(OC)cc12 (stereo not given) [Mepacrine] (5 nM)	96.1
CCCS(=O)(=O)Nc1ccc(F)c(C(=O)c2c[nH]c3ncc(-c4ccc(Cl)cc4)cc23)c1F [Vemurafenib] (10 nM)	95.5
CCCS(=O)(=O)Nc1ccc(F)c(C(=O)c2c[nH]c3ncc(-c4ccc(Cl)cc4)cc23)c1F [Vemurafenib] (1 nM)	97.2
CC1=C(/C=C/C(C)=C/C=C/C(C)=C/C(=O)O)C(C)(C)CCC1 [Tretinoin] (10 nM)	96.6
Cc1ccc(-c2cc(C(F)(F)F)nn2-c2ccc(S(N)(=O)=O)cc2)cc1 [Celecoxib] (1 nM)	96.5
Oc1ncc(N(CCCl)CCCl)c(O)n1 [Uracil mustard] (1 nM)	105
Nc1ccccc1NC(=O)c1ccc(CNC(=O)OCc2cccnc2)cc1 [Entinostat] (1 nM)	92.8
C=CC(=O)Nc1cc2c(Nc3ccc(F)c(Cl)c3)ncnc2cc1OCCCN1CCOCC1 [Canertinib] (1 nM)	96.8

These molecules were tested on HDQ-P1 in the same assay as above. Conditions: incubation time: 72 h.
In short: as §1

Structure (SMILES)	normalised response [%]
C=CC(=O)N1CCC[C@@H](n2nc(-c3ccc(Oc4ccccc4)cc3)c3c(N)ncnc32)C1 [Ibrutinib] (0.1 nM)	93.6
Nc1nc2[nH]cc(CCc3ccc(C(=O)N[C@@H](CCC(=O)O)C(=O)O)cc3)c2c(=O)[nH]1 [Pemetrexed] (1 nM)	105
COc1cc2nccc(Oc3ccc(NC(=O)Nc4cc(C)on4)c(Cl)c3)c2cc1OC [Tivozanib] (1 nM)	93.5
COc1cc2c(NC3CCN(C(C)C)CC3)nc(C3CCCCC3)nc2cc1OCCCN1CCCC1 [UNC0638] (1 nM)	103
CNC(=O)c1cc(Oc2ccc(NC(=O)Nc3cc(C(C)(C)C)nn3-c3ccc4ncccc4c3)c(F)c2)ccn1 [Rebastinib] (0.1 nM)	105
N#Cc1ccc(C(c2ccc(C#N)cc2)n2cncn2)cc1 [Letrozole] (1 nM)	94.1
CC[C@H](Nc1ncnc2[nH]cnc12)c1nc2cccc(F)c2c(=O)n1-c1ccccc1 [GS-1101] (1 nM)	88.3
O=C(O)C(=O)O.[NH-][C@@H]1CCCC[C@H]1[NH-].[Pt+2] [Oxaliplatin] (10 nM)	99.8
C=CC(=O)Nc1cc2c(Nc3ccc(F)c(Cl)c3)ncnc2cc1OCCCN1CCOCC1 [Canertinib] (10 nM)	82.4
CC(=O)Nc1cccc(-n2c(=O)n(C3CC3)c(=O)c3c(Nc4ccc(I)cc4F)n(C)c(=O)c(C)c32)c1 [Trametinib] (0.25 nM)	108
C=CC(=O)N1CCC[C@@H](n2nc(-c3ccc(Oc4ccccc4)cc3)c3c(N)ncnc32)C1 [Ibrutinib] (1 nM)	98.2
CCCCC(=O)OCC(=O)[C@]1(O)Cc2c(O)c3c(c(O)c2[C@@H](O[C@H]2C[C@H](NC(=O)C(F)(F)F)[C@H](O)[C@H](C)O2)C1)C(=O)c1c(OC)cccc1C3=O [Valrubicin] (0.5 nM)	101
COc1cc2nccc(Oc3ccc(NC(=O)Nc4cc(C)on4)c(Cl)c3)c2cc1OC [Tivozanib] (10 nM)	100
CCN(CC)CCCC(C)Nc1c2ccc(Cl)cc2nc2ccc(OC)cc12 (stereo not given) [Mepacrine] (5 nM)	105
CCCS(=O)(=O)Nc1ccc(F)c(C(=O)c2c[nH]c3ncc(-c4ccc(Cl)cc4)cc23)c1F [Vemurafenib] (10 nM)	94.9
CCCS(=O)(=O)Nc1ccc(F)c(C(=O)c2c[nH]c3ncc(-c4ccc(Cl)cc4)cc23)c1F [Vemurafenib] (1 nM)	89.6
CC1=C(/C=C/C(C)=C/C=C/C(C)=C/C(=O)O)C(C)(C)CCC1 [Tretinoin] (10 nM)	94.4
Cc1ccc(-c2cc(C(F)(F)F)nn2-c2ccc(S(N)(=O)=O)cc2)cc1 [Celecoxib] (1 nM)	97.4
